Read-outs that look alike come from different tables or passages of the source.
Experiments:
[1] = biological target: Granzyme B (human lymphocytes) (Homo sapiens (Human), UniProt P10144); assay: human Granzyme B biochemical assay
Outline: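 Enzyme (10 nM working stock, assay buffer with 0.1% BSA) pre-incubated with compound for 30 min at 22 °C, then Ac-IETD-AFC (800 µM working stock) added for 60 min at 22 °C in the dark. Fluorescence read at Ex 400/Em 505 nm; 8-point 3.16-fold series (40 µM top working stock); IC50 from % inhibition versus standard-inhibitor and DMSO controls.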

[2] = metabolic stability assay using liver microsomes; assay type: in vitro ADME; settings: human liver microsomes, with NRS at 37° C.
Procedure: In addition, compounds of Formula I-VIII described above are also tested in the metabolic stability assay using liver microsomes, as provided below.
Buffer pH7.4: Prepare 1 (M) KH2PO4 and 1 (M) K2HPO4. Titrate 1(M) K2HPO4 with 1 (M) KH2PO4 to obtain pH 7.40. Dilute this buffer 10 fold in Water (30 ml buffer+270 ml of water) to obtain 100 mM phosphate buffer. Adjust pH to 7.40±0.02 using 5(N) HCl or 5(N) NaOH.
NADPH Regeneration System (NRS): Prepare a solution containing 13 mM NADP, 33 mM Glucose-6-phosphate, 33 mM MgCl2 and 4 U/ml Glucose-6-phosphate dehydrogenase in buffer.
Liver Microsome (LM) suspension: Thaw LM vial on ice, then mix 1.0 ml LM (20 mg/ml) with 19 ml buffer [final LM Conc: 1 mg/ml]
LM+NRS suspension: Mix 5.0 ml NRS with 20 ml LM suspension [final LM Conc: 0.8 mg/ml]
System suitability standard: a synthesized compound having Mol wt 686.2 used as System suitability standard. Dissolve this compound in ice-cold acetonitrile to obtain concentration of 0.1 μg/ml and store at 4° C.
Compound Stock: 10 mM in DMSO
Sub stock (100 μM): 4 μl of 10 mM Compound Stock+[…] Acetonitrile
Working plate (2 μM): 10 μl of 100 μM Sub stock+490 μl buffer
Incubate all plastic materials including tips at 37° C. overnight.
Incubate LM suspension and NRS at 37° C. for 15 min before use.
Add 40 μl buffer to the wells of blank plate.
Add 40 μl compound (from working plate) to 0, 5, 10, 20, 30 and 60 min plates.
Initiate reaction by adding 40 μl of LM+NRS suspension in each plate.
Terminate reaction by adding 240 μl ice-cold acetonitrile containing system suitability standard at designated time points. For T=0 add 240 μl ice-cold acetonitrile containing system suitability standard before LM+NRS addition.
Centrifuge (3500 rpm, 20 min and 15° C.) the plates.
Mix 110 μl supernatant with 110 μl water and quantitate amount of Compound in the solution using LC-MS/MS.
For Scaled CLint & Predicted CL use the relevant physiological parameters, as applicable.
Human LM: Corning, Cat #25117
Mouse LM: Xenotech, Cat #M1000
(2) Volumes mentioned in the protocol are representative values and may change depending on number of test compounds.
(3) It is assumed that the compounds are chemically stable in the assay system/buffer.
The metabolic stability assay described above can be performed using different test concentrations, LM Concentrations, or time points.
Certain compounds of this disclosure were tested in the microsomal stability assay provided above.

[3] = Granzyme B (human lymphocytes) 5 nM, substrate Ac-IETD-AFC 200 μM, Cpd incubation with enzyme 30 mins, 22° C., read time 60 mins, read-out: IC50
[4] = Granzyme B IC50 as repeated in Table 7, read-out: IC50
[5] = Granzyme B IC50 as repeated in Table 7

Sequence of Granzyme B (human lymphocytes) (P10144 21-247): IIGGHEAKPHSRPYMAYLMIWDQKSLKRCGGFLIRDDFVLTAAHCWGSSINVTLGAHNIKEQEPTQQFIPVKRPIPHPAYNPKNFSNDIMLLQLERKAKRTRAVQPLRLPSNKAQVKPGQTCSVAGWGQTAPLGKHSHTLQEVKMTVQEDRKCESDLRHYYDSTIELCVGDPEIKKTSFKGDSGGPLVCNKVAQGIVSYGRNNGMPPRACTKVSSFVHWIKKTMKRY

| SMILES | IC50 [1, 3] [nM] | IC50 [1, 4] [nM] | HLM % remaining @ 30 min [2] | IC50 [1] [nM] | IC50 [1, 5] [nM] |
| --- | --- | --- | --- | --- | --- |
| CC(C)[C@H](NC(=O)c1ccccc1)C(=O)N[C@H]1CCc2cccc3c2N(C1=O)[C@H](C(=O)NCc1c[nH]nn1)C3 [Compound C036, (2S,5S)-5-((S)-2-Benzoylamino-3-methyl-butyrylamino)-4-oxo-1,2,4,5,6,7-hexahydro-azepino[3,2,1-hi]indole-2-carboxylic acid (1H-[1,2,3]triazol-4-ylmethyl)-amide] | 1 to 300 | 1 to 300 | *** (the symbol “***” indicates a remaining percentage of 71-100%) |  |  |
| CC[C@H](C)[C@H](NC(=O)c1ccccc1)C(=O)N[C@H]1CCc2cccc3c2N(C1=O)[C@H](C(=O)NCc1c[nH]nn1)C3 [Compound C039, (2S,5S)-5-((2S,3S)-2-Benzoylamino-3-methyl-pentanoylamino)-4-oxo-1,2,4,5,6,7-hexahydro-azepino[3,2,1-hi]indole-2-carboxylic acid (1H-[1,2,3]triazol-4-ylmethyl)-amide] | 1 to 300 | 1 to 300 | ** (“**” indicates a remaining percentage of 31-70%) |  |  |
| CC[C@@H](C)[C@H](NC(=O)c1ccccc1)C(=O)N[C@H]1CCc2cccc3c2N(C1=O)[C@H](C(=O)NCc1c[nH]nn1)C3 [Compound C053, (2S,5S)-5-((2S,3R)-2-Benzoylamino-3-methyl-pentanoylamino)-4-oxo-1,2,4,5,6,7-hexahydro-azepino[3,2,1-hi]indole-2-carboxylic acid (1H-[1,2,3]triazol-4-ylmethyl)-amide] | 1 to 300 | 1 to 300 | ** (“**” indicates a remaining percentage of 31-70%) |  |  |
| CC[C@@H](C)[C@H](NC(=O)Cc1csc2ccccc12)C(=O)N[C@H]1CCc2cccc3c2N(C1=O)[C@H](C(=O)NCc1c[nH]nn1)C3 [Compound C054, (2S,5S)-5-[(2S,3R)-2-(2-Benzo[b]thiophen-3-yl-acetylamino)-3-methyl-pentanoylamino]-4-oxo-1,2,4,5,6,7-hexahydro-azepino[3,2,1-hi]indole-2-carboxylic acid (1H-[1,2,3]triazol-4-ylmethyl)-amide] | 1 to 300 | 1 to 300 | * (“*” indicates a remaining percentage of 0-30%) |  |  |
| CC(C)[C@H](NC(=O)COCCF)C(=O)N[C@H]1CCc2cccc3c2N(C1=O)[C@H](C(=O)NCc1c[nH]nn1)C3 [Compound C056, (2S,5S)-5-{(S)-2-[2-(2-Fluoro-ethoxy)-acetylamino]-3-methyl-butyrylamino}-4-oxo-1,2,4,5,6,7-hexahydro-azepino[3,2,1-hi]indole-2-carboxylic acid (1H-[1,2,3]triazol-4-ylmethyl)-amide] | 1 to 300 | 1 to 300 | *** (the symbol “***” indicates a remaining percentage of 71-100%) |  |  |
| CC(C)[C@H](NC(=O)CF)C(=O)N[C@H]1CCc2cccc3c2N(C1=O)[C@H](C(=O)NCc1c[nH]nn1)C3 [Compound C057, (2S,5S)-5-[(S)-2-(2-Fluoro-acetylamino)-3-methyl-butyrylamino]-4-oxo-1,2,4,5,6,7-hexahydro-azepino[3,2,1-hi]indole-2-carboxylic acid (1H-[1,2,3]triazol-4-ylmethyl)-amide] |  |  | *** (the symbol “***” indicates a remaining percentage of 71-100%) | 1 to 300 | 1 to 300 |
| CC[C@H](C)[C@H](NC(=O)COCCF)C(=O)N[C@H]1CCc2cccc3c2N(C1=O)[C@H](C(=O)NCc1c[nH]nn1)C3 [Compound C058, (2S,5S)-5-{(2S,3S)-2-[2-(2-Fluoro-ethoxy)-acetylamino]-3-methyl-pentanoylamino}-4-oxo-1,2,4,5,6,7-hexahydro-azepino[3,2,1-hi]indole-2-carboxylic acid (1H-[1,2,3]-triazol-4-ylmethyl)-amide] | 1 to 300 | 1 to 300 | *** (the symbol “***” indicates a remaining percentage of 71-100%) |  |  |
| CC[C@H](C)[C@H](NC(=O)CF)C(=O)N[C@H]1CCc2cccc3c2N(C1=O)[C@H](C(=O)NCc1c[nH]nn1)C3 [Compound C059, (2S,5S)-5-[(2S,3S)-2-(2-Fluoro-acetylamino)-3-methyl-pentanoylamino]-4-oxo-1,2,4,5,6,7-hexahydro-azepino[3,2,1-hi]indole-2-carboxylic acid (1H-[1,2,3]triazol-4-ylmethyl)-amide] |  |  | *** (the symbol “***” indicates a remaining percentage of 71-100%) | 1 to 300 | 1 to 300 |
| CC[C@H](C)[C@H](NC(=O)c1ccccc1)C(=O)N[C@H]1COc2cccc3c2N(C1=O)[C@H](C(=O)NCc1c[nH]nn1)C3 [Compound C096, (1S,8S)-8-((2S,3S)-2-Benzoylamino-3-methyl-pentanoylamino)-9-oxo-1,2,8,9-tetrahydro-7H-6-oxa-9a-aza-benzo[cd]azulene-1-carboxylic acid (1H-[1,2,3]triazol-4-ylmethyl)-amide] | 1 to 300 | 1 to 300 | ** (“**” indicates a remaining percentage of 31-70%) |  |  |
| CC[C@H](C)[C@H](NC(C)=O)C(=O)N[C@H]1COc2cccc3c2N(C1=O)[C@H](C(=O)NCc1c[nH]nn1)C3 [Compound C097, (1S,8S)-8-((2S,3S)-2-Acetylamino-3-methyl-pentanoylamino)-9-oxo-1,2,8,9-tetrahydro-7H-6-oxa-9a-aza-benzo[cd]azulene-1-carboxylic acid (1H-[1,2,3]triazol-4-ylmethyl)-amide] | 1 to 300 | 1 to 300 | *** (the symbol “***” indicates a remaining percentage of 71-100%) |  |  |
| CC[C@H](C)[C@H](NC(=O)CF)C(=O)N[C@H]1COc2cccc3c2N(C1=O)[C@H](C(=O)NCc1c[nH]nn1)C3 [Compound C098, (1S,8S)-8-[(2S,3S)-2-(2-Fluoro-acetylamino)-3-methyl-pentanoylamino]-9-oxo-1,2,8,9-tetrahydra-7H-6-oxa-9a-aza-benzo[cd]azulene-1-carboxylic acid (1H-[1,2,3]triazol-4-ylmethyl)-amide] |  |  | *** (the symbol “***” indicates a remaining percentage of 71-100%) | 1 to 300 | 1 to 300 |
| CC[C@H](C)[C@H](NC(=O)COCCF)C(=O)N[C@H]1COc2cccc3c2N(C1=O)[C@H](C(=O)NCc1c[nH]nn1)C3 [Compound C099, (1S,8S)-8-{(2S,3S)-2-[2-(2-Fluoro-ethoxy)-acetylamino]-3-methyl-pentanoylamino}-9-oxo-1,2,8,9-tetrahydro-7H-6-oxa-9a-aza-benzo[cd]azulene-1-carboxylic acid (1H-[1,2,3]triazol-4-ylmethyl)-amide] | 1 to 300 | 1 to 300 | *** (the symbol “***” indicates a remaining percentage of 71-100%) |  |  |
| CC(C)[C@H](NC(=O)COCCF)C(=O)N[C@H]1COc2cccc3c2N(C1=O)[C@H](C(=O)NCc1c[nH]nn1)C3 [Compound C103, (1S,8S)-8-{(S)-2-[2-(2-Fluoro-ethoxy)-acetylamino]-3-methyl-butyrylamino}-9-oxo-1,2,8,9-tetrahydro-7H-6-oxa-9a-aza-benzo[cd]azulene-1-carboxylic acid (1H-[1,2,3]triazol-4-ylmethyl)-amide] | 1 to 300 | 1 to 300 | *** (the symbol “***” indicates a remaining percentage of 71-100%) |  |  |
| CC[C@H](C)[C@H](NC(=O)c1ccc(F)nc1)C(=O)N[C@H]1CCc2cccc3c2N(C1=O)[C@H](C(=O)NCc1c[nH]nn1)C3 [Compound C140, (2S,5S)-5-{(2S,3S)-2-[(6-Fluoro-pyridine-3-carbonyl)-amino]-3-methyl-pentanoylamino}-4-oxo-1,2,4,5,6,7-hexahydro-azepino[3,2,1-hi]indole-2-carboxylic acid (1H-[1,2,3]triazol-4-ylmethyl)-amide] | 1 to 300 | 1 to 300 | *** (the symbol “***” indicates a remaining percentage of 71-100%) |  |  |

From patent US11667645B2, “Granzyme B directed imaging and therapy” (CytoSite Biopharma Inc., priority 2018, dated 2023)
